ChEMBL document CHEMBL1144329, “De novo design, synthesis, and in vitro activity of LFA-1 antagonists based on a bicyclic[5.5]hydantoin scaffold” (Bioorg Med Chem Lett, 2005)

What follows are compounds tested against Intercellular adhesion molecule (ICAM-1), Integrin alpha-L/beta-2 (Homo sapiens, UniProt P05107+P20701) (assay: Inhibitory concentration against leukocyte function-associated antigen-1 in HSB-2 human lymphoblast and H1HeLa cell adhesion assay).
Sequence of Intercellular adhesion molecule (ICAM-1), Integrin alpha-L/beta-2 (P20701 whole entry): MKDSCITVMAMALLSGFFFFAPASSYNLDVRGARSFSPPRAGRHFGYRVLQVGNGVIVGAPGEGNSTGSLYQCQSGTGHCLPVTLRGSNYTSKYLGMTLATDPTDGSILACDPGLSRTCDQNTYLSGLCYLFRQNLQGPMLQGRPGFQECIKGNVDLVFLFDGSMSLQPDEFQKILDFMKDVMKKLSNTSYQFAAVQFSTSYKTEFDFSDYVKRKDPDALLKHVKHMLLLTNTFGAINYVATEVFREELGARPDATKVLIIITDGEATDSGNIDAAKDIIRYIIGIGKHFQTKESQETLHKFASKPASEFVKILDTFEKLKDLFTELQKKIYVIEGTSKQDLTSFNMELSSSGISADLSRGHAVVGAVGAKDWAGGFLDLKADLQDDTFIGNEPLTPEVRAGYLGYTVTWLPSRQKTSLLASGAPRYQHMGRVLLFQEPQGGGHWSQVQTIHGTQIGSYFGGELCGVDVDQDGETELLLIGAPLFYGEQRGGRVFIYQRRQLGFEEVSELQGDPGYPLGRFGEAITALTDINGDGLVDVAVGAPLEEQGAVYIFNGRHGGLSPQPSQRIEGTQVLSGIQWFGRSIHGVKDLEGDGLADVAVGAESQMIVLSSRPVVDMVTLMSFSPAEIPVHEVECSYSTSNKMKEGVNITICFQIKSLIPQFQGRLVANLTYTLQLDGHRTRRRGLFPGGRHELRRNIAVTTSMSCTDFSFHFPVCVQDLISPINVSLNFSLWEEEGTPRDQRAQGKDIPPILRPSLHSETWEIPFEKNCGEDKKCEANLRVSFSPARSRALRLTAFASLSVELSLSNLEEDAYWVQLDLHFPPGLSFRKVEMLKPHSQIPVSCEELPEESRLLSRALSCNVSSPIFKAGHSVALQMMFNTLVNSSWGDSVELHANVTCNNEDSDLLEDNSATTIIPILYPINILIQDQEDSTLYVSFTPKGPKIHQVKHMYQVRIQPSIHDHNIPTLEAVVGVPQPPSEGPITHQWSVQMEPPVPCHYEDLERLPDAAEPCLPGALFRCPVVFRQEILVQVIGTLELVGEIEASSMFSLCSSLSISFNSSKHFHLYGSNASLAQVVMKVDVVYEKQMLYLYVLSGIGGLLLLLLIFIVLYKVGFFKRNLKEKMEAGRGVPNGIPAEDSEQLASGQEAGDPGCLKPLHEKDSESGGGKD
Sequence of Intercellular adhesion molecule (ICAM-1), Integrin alpha-L/beta-2 (P05362 whole entry, further chain): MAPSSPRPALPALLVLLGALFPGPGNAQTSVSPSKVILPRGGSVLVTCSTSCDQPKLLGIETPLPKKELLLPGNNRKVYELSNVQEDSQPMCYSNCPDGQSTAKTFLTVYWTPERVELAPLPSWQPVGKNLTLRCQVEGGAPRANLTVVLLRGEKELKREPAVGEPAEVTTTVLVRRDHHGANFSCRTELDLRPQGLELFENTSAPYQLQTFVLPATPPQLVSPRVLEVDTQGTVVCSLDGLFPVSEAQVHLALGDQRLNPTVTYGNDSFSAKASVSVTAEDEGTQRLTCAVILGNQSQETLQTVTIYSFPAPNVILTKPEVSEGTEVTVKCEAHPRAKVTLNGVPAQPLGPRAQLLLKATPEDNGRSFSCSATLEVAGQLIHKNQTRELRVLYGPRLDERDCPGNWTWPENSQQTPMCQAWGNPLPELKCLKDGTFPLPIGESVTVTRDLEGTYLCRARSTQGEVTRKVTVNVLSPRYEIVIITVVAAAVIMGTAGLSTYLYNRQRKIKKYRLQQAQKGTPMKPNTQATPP
Sequence of Intercellular adhesion molecule (ICAM-1), Integrin alpha-L/beta-2 (P05107 whole entry): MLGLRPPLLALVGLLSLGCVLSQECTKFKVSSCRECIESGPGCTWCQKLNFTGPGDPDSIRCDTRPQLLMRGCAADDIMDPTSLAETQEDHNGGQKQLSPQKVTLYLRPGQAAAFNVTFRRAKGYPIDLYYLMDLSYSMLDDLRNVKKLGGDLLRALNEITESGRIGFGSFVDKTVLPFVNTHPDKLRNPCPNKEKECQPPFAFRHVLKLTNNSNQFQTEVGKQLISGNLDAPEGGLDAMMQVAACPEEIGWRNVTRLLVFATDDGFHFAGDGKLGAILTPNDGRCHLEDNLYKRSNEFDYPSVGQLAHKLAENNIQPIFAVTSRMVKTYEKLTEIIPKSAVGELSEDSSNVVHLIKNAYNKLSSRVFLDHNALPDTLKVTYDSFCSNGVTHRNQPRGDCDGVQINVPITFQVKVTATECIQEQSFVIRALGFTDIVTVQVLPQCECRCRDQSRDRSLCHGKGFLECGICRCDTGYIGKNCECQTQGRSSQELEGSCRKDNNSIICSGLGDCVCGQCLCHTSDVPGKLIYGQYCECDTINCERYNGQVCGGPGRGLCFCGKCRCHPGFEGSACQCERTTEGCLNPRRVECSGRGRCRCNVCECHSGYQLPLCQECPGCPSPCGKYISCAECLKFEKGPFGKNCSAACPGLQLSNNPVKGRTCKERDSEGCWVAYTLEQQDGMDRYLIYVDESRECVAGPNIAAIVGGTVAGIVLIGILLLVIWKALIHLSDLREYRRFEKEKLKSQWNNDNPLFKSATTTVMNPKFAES
Type: functional, cell-based, H1-HeLa
Compound CN(Cc1cccc(-c2ccc(Br)cc2)c1)[C@H]1C[C@H]2C(=O)N(c3cc(Cl)cc(Cl)c3)C(=O)N2C1 has an IC50 of 175 nM. Work on CCN(Cc1cccc(-c2ccc(C#N)cc2)c1)[C@H]1C[C@H]2C(=O)N(c3cc(Cl)cc(Cl)c3)C(=O)N2C1 yielded an IC50 of 730 nM. O=C1[C@@H]2C[C@H](OCc3cccc(-c4cccc(Br)c4)c3)CN2C(=O)N1c1cc(Cl)cc(Cl)c1 gave an IC50 of 755 nM. N#Cc1ccc(-c2cccc(CN[C@H]3C[C@H]4C(=O)N(c5cc(Cl)cc(Cl)c5)C(=O)N4C3)c2)cc1 gave an IC50 of 175 nM. For O=C1[C@@H]2C[C@@H](OCc3cccc(-c4ccc(Br)cc4)c3)CN2C(=O)N1c1cc(Cl)cc(Cl)c1, the IC50 was 935 nM. Compound O=C1[C@H]2C[C@@H](OCc3cccc(-c4ccc(Br)cc4)c3)CN2C(=O)N1c1cc(Cl)cc(Cl)c1 has an IC50 of 275 nM. O=C1[C@@H]2C[C@H](OCc3cccc(-c4ccc(Br)cc4)c3)CN2C(=O)N1c1cc(Cl)cc(Cl)c1 gave an IC50 of 85 nM. For O=C1[C@@H]2C[C@H](Oc3ccc(-c4ccc(Br)cc4)cc3)CN2C(=O)N1c1cc(Cl)cc(Cl)c1, the IC50 was 480 nM. N#Cc1ccc(-c2cccc(CO[C@H]3C[C@H]4C(=O)N(c5cc(Cl)cc(Cl)c5)C(=O)N4C3)c2)cc1 gave an IC50 of 270 nM. O=C1[C@@H]2C[C@H](SCc3cccc(-c4ccc(Br)cc4)c3)CN2C(=O)N1c1cc(Cl)cc(Cl)c1 gave an IC50 of 290 nM. With O=C1[C@H]2C[C@@H](OCc3cccc(-c4ccc(Cl)cc4)c3)CN2C(=O)N1c1cc(Cl)cc(Cl)c1 the IC50 was 620 nM.
